The values that follow are results of earlier work, collected in patent US11839666B2, “Oral care article comprising a hydrophobic delivery carrier and solid hydrophilic particles comprising an agent” (The Procter & Gamble Company, priority 2020, dated 2023).

Where two headings read alike, the source gives them in different places.

The conditions of this data set: at 20 C.

In the case of `NC(N)=O.OO` [Urea Hydrogen Peroxide Adduct], the Solubility in water by setting is: (per Safety Data Sheet from supplier) 800 grams per liter; (restated from Safety Data Sheet value) 80 parts per 100 parts of water.
